US20140072567A1, “Methods Of Treating And Preventing Glucose Toxicity” (Walter and Eliza Hall Institute of Medical Research, ACN …, priority 2008, published 2014)

Columns and labels:
[1] = system: islets from wild type C57BL/6 mice; experiment: DNA fragmentation assay (sub-diploid DNA, flow cytometry); format: cell-based; conditions: for DNA fragmentation: wild-type islets
Procedure: Uniformly sized islets (excluding very large or necrotic islets) were handpicked into 3.5 cm Petri dishes containing 1.1 mL of complete CMRL. Islets were then cultured with the appropriate stimuli to cause DNA fragmentation. At the end of the culture period, non-attached cells and islets were transferred into polypropylene tubes and washed in PBS. Islets were then dispersed with trypsin (0.1 mg/mL bovine trypsin (Calbiochem) and 2 mmol/L EDTA in PBS) for 5 min at 37° C. Islets were mechanically dispersed using a pipette, washed in PBS, and allowed to recover in complete CMRL medium for 1 h at 37° C. in 5% CO2. Cells were then washed in PBS and resuspended in 250 μL of hypotonic buffer containing 50 mg/mL propidium iodide (Sigma-Aldrich), 0.1% sodium citrate, and 0.1% TritonX-100 which stains nuclear DNA. The cells were then analyzed on a FACSCalibur (Becton Dickinson, Franklin Lakes, N.J., USA) using the FL3 channel. Cells undergoing apoptosis were identified by their sub-diploid DNA content as previously described (Riccardi and Nicoletti, 2006).

[2] = system: islets from wild-type mice; experiment: Cytochrome c release from mitochondria (flow cytometry); format: cell-based
Procedure: FIG. 1: Wild-type islets cultured in high concentrations of glucose or ribose undergo DNA fragmentation and mitochondrial release of cytochrome C, both indicative of apoptosis, and have a reduced ability to secrete insulin. (A) 200 islets from wild-type C57BL/6 mice were either cultured in low glucose medium (5.6 mM) (unt) or cultured in high glucose media (33.3 mM) for 6 days or high ribose medium (50 mM) for 4 days and DNA fragmentation was measured. Representative flow cytometry profiles are shown i). Data represent islets from 13-17 individual mice per group ii). Statistical significance; *p<0.001 compared with unt (one-way ANOVA). (B) 100 islets from wild-type mice were cultured under conditions mentioned above for 4 and 3 days respectively and cytochrome C release was measured. Representative flow cytometry profiles are shown i). Data represent islets from 4 individual mice per group. ii) Statistical significance; *p<0.001 ** p<0.05 compared with unt (one-way ANOVA). (C) wild-type islets were cultured in high concentrations of ribose (50 mM) for 2 days and insulin release was measured after glucose stimulation. Statistical significance; *p<0.01 compared with unt (one-way ANOVA). […]

bim = experiment: Real-time qRT-PCR of islets, bim; format: cell-based, mice; conditions: for up-regulation of bim mRNA: islets exposed to high concentrations of glucose or ribose
Procedure: (§1) FIG. 7: Ribose induces expression of Puma and Bax in islets. Quantitative RT-PCR of wild-type islets cultured in control medium or medium containing 50 mM ribose, 33.3 mM glucose or 5 μM thapsigargin for 24 or 48 h. Relative RNA expression levels for (A) Puma (B) Bim and (C) Bax were calculated by normalizing to the signal for β-actin in each sample and comparison to islets cultured in control medium. Mean±SEM of 3-4 independent experiments is shown. Statistical significance *p<0.05, **p<0.01 compared with control (two-tailed paired t-test). RNA was prepared using the RNeasy Kit (Qiagen). First strand cDNA was prepared from 0.1-0.2 μg RNA using the High Capacity RNA-to-cDNA Master Mix (Applied Biosystems). Real-time PCR was performed using the ABI Prism 7900 (Applied Biosystems) and the Power SYBR Green PCR Master Mix (Applied Biosystems) in 15 μl reaction volumes. Data analyses were performed with the CT method using actin as an internal control. qRT-PCR was performed using the following forward and reverse primers (a kind gift from Drs DCS Huang and M Narita) (Table 1).

iNOS = experiment: Western blotting for iNOS expression in islets; format: cell-based, mice; conditions: islets cultured in high glucose (33.3 mM) in the presence of IFNγ
Procedure: (§2) FIG. 2: IL-1β or Fas are not required for glucose or ribose induced beta cell apoptosis. (A) 200 islets from wild-type, IL-1R^−/− and B6^lpr/lpr mice were cultured for 6 days in 5.6 mM low glucose medium (unt) or 33.3 mM D-glucose or for 4 days in 50 mM ribose. DNA fragmentation was measured by flow cytometry. (B) 100 wild-type islets were cultured for 7 days in 5.6 mM or 33.3 mM D-glucose with cytokines added in the last 4 days and iNOS expression, NO production and DNA fragmentation was measured. Representative Western blot for iNOS expression (β-actin used as loading control). (C) NO2 determination of culture supernatant (D) DNA fragmentation was measured by flow cytometry. (E) Wild-type islets were cultured in 50 mM ribose or cytokines for 2 days, 33.3 mM D-glucose for 4 days (solid lines) compared to islets cultured in 5.6 mM D-glucose (broken lines). Fas expression on β cells was analysed by FACS analysis. (F) Wild-type islets cultured for 7 days in 5.6 mM (−) or 33.3 mM (+) glucose with cytokines or FasL added in the last 4 days. The data represent the mean±S.E.M of three experiments. Islets were incubated for 4 days with cytokines and 33.3 mM glucose, transferred to microcentrifuge tubes and washed three times in PBS. […]

Fas = Fas expression on islet beta cells by flow cytometry; format: cell-based, mice; conditions: high glucose (33.3 mM, 4 days) compared to untreated controls
Procedure: as §2, with “Islets cells” for “Islets”, “analysed” for “incubated”, “expression of Fas by flow cytometry as previously described (Thomas et al., 1999). Islets were dispersed into single cells as described above” for “4 days with cytokines”, “stained using standard procedures.” for “33.3 mM glucose, transferred to microcentrifuge tubes and washed three times in PBS.”

puma = experiment: Real-time qRT-PCR of islets, puma; format: cell-based, mice
Procedure: as §1

bax = experiment: Real-time qRT-PCR of islets, bax; format: cell-based, mice
Procedure: as §1

wild type islets = experiment: Glucose-stimulated insulin secretion assay; format: cell-based, mice; conditions: wild type islets exposed to ribose (50 mM) for two days
Procedure: Insulin secretion assays were performed as previously described (Thomas et al., 2002). Two hundred islets were cultured in complete CMRL and ribose for 2 days, then washed three times in Krebs-Ringer bicarbonate buffer (KRB; 25 mmol/l HEPES, 115 mmol/l NaCl, 24 mmol/l NaHCO3, 5 mmol/l MgCl2, 2.5 mmol/l CaCl2, pH 7.4) with 3 mmol/l glucose and 0.1% BSA. Groups of 20 islets in quadruplicate were incubated for 30 min in 200 μl KRB containing 3 mmol/l glucose under 5% CO2/95% air with shaking at 37° C., followed by a second incubation in 200 μl KRB containing either 3 or 20 mmol/l glucose. Buffer was sampled for insulin after 30 min using a mouse insulin ELISA kit (Linco Research, Mo., USA).

bak = experiment: Real-time qRT-PCR of islets, bak; format: cell-based, mice; conditions: 5 μM thapsigargin, data not shown
Procedure: as §1

Q: Which results are given for `O=C[C@H](O)[C@@H](O)[C@H](O)[C@H](O)CO` [D-glucose]?
A: DNA fragmentation ([1]; 33.3 mM D-glucose, 6 days, compared to low glucose media (5.6 mM)): modest but significant increase; release of cytochrome c from the mitochondria ([2]; high glucose (33.3 mM), 4 days, compared to untreated islets): significant increase; up-regulation of bim mRNA (bim): no up-regulation; iNOS expression (iNOS): no iNOS expression; Fas expression on islet cells (Fas): slight but insignificant rise

Q: Which DNA fragmentation ([1]; 50 mM ribose, 4-day period, compared to high concentrations of glucose) does the source give for `O=C[C@H](O)[C@H](O)[C@H](O)CO` [ribose, D-ribose] here?
A: significantly more DNA fragmentation

Q: And the “release of cytochrome c from the mitochondria” value ([2]; high ribose (50 mM), 3 days, compared to high glucose)?
A: more pronounced

Q: What about the “increase in expression of puma” value (puma; 50 mM ribose, 48 h) of the same compound?
A: 4 fold

Q: What about the “increase in expression of bax” value (bax; 50 mM ribose, 48 h) of the same compound?
A: 4 fold

Q: What about the “up-regulation of bim mRNA” value (bim) of the same compound?
A: no up-regulation

Q: And the Bim expression (bim; ribose incubation (50 mM))?
A: remained unchanged

Q: And the “insulin secretory function after glucose stimulation” value (wild type islets)?
A: significant loss

Q: What does the source list for `C/C=C(/C)C(=O)O[C@H]1C(C)=C2[C@H]([C@@H]1OC(=O)CCCCCCC)[C@@](C)(OC(C)=O)C[C@H](OC(=O)CCC)[C@@]1(O)[C@H]2OC(=O)[C@@]1(C)O` [thapsigargin, reference compound]?
A: increase in expression of puma (puma; 5 μM thapsigargin, 24 or 48 h): 2-7 fold; increase in expression of bax (bax; 5 μM thapsigargin, 24 or 48 h): 2-7 fold; increase in expression of bak (bak): 2-7 fold; increase in expression of bim (bim; 5 μM thapsigargin): not

Q: For “z-Val-Ala-Aspfluoromethylketone [z-VAD.fmk, reference compound]”, which “inhibition of ribose-induced islet cell DNA fragmentation” value ([1]; pan-caspase inhibitor used at 100 μmol/L) is on record?
A: significantly inhibited
